According to patent US12389911B2, “Benzimidazole compound or salt thereof, agricultural and horticultural insecticidal and acaricidal agent containing said compound, and method for using same” (NIHON NOHYAKU CO., LTD., priority 2019, dated 2025):

Legend:
Assay type in all cases: in vivo
[1] = test system: Small brown planthopper (Laodelphax striatellus); experiment: Insecticidal test on small brown planthopper (rice seedling dip); details: 500 ppm, rice seedlings dipped 30 seconds, ten 3rd-instar larvae, 8 days after inoculation
From the text: Insecticidal Test on Small Brown Planthopper (Laodelphax striatellus)
The benzimidazole compounds represented by the general formula (1) of the present invention or salts thereof were separately dispersed in water and diluted to 500 ppm. Rice plant seedlings (variety: Nihonbare) were dipped in the agrochemical dispersions for 30 seconds. After air-dried, each seedling was put into a separate glass test tube and inoculated with ten 3rd-instar larvae of small brown planthopper, and then the glass test tubes were capped with cotton plugs. At 8 days after the inoculation, survival rates were calculated from the numbers of surviving larvae and dead larvae, the corrected mortality rate was calculated according to the formula shown below, and the insecticidal efficacy was evaluated according to the criteria shown below. Corrected mortality rate (%)=(Survival rate in a non-treatment plot−Survival rate in a treatment plot)/(Survival rate in a non-treatment plot)×100 [Expression 2] Criteria: • A: the corrected mortality rate is 100%. • B: the corrected mortality rate is 90 to 99%. • C: the corrected mortality rate is 80 to 89%. • D: the corrected mortality rate is 50 to 79%.

[2] = test system: Two-spotted spider mite (Tetranychus urticae); experiment: Acaricidal action on two-spotted spider mite (kidney bean leaf disk spray); details: 500 ppm, adult females, 25° C., two days after treatment
Method in brief: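 Kidney bean leaf disks (2 cm) carrying adult female T. urticae were sprayed with compound dispersion at 500 ppm and held at 25 °C. Dead mites counted 2 days later and corrected mortality calculated against untreated plots; 10 adults per plot, in duplicate.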

[3] = test system: Diamondback moth (Plutella xylostella); experiment: Insecticidal test on diamondback moth (dip of Chinese cabbage seedlings with laid eggs); details: 500 ppm, seedlings with laid eggs dipped about 30 seconds, 25° C., 6 days after dip treatment
From the text: Insecticidal Test on Diamondback Moth (Plutella xylostella)
Adults of diamondback moth were released onto Chinese cabbage seedlings and allowed to lay eggs thereon. At 2 days after the release of the adults, the Chinese cabbage seedlings with laid eggs were dipped for about 30 seconds in agrochemical dispersions diluted to 500 ppm, each of which contained a different benzimidazole compound represented by the general formula (1) of the present invention or salt thereof as an active ingredient. After air-dried, the seedlings were kept in a thermostatic chamber at 25° C. At 6 days after the dip treatment, the number of hatched larvae per plot was counted, the corrected mortality rate was calculated according to the formula shown below, and the insecticidal efficacy was evaluated according to the criteria of Test Example 2. This test was conducted in triplicate using 10 adults of diamondback moth per plot. Corrected mortality rate (%)=(Number of hatched larvae in a non-treatment plot−Number of hatched larvae in a treatment plot)/(Number of hatched larvae in a non-treatment plot)×100 [Expression 3]

[4] = test system: Green peach aphid (Myzus persicae); experiment: Test for control efficacy on green peach aphid (foliar application on Chinese cabbage); details: 500 ppm, foliar application to potted Chinese cabbage, 6 days after application
From the text: Test for Control Efficacy on Green Peach Aphid (Myzus persicae) Chinese cabbage plants were planted in plastic pots (diameter: 8 cm, height: 8 cm), green peach aphids were propagated on the plants, and the number of surviving Green peach aphids in each pot was counted. The benzimidazole compounds represented by the general formula (1) of the present invention or salts thereof were separately dispersed in water and diluted to 500 ppm. The agrochemical dispersions were applied to the foliage of the potted Chinese cabbage plants. After the plants were air-dried, the pots were kept in a greenhouse. At 6 days after the foliar application, the number of surviving Green peach aphids on the Chinese cabbage plant in each pot was counted, the control rate was calculated according to the formula shown below, and the control efficacy was evaluated according to the criteria shown below. Control rate=100−{(T×Ca)/(Ta×C)}×100 [Expression 1] Ta: the number of survivors before the foliar application in a treatment plot T: the number of survivors after the foliar application in a treatment plot Ca: the number of survivors before the foliar application in a non-treatment plot C: the number of survivors after the foliar application in a non-treatment plot Criteria • A: the control rate is 100%. • B: the control rate is 90 to 99%. • C: the control rate is 80 to 89%. • D: the control rate is 50 to 79%.

Row | SMILES | insecticidal efficacy (corrected mortality rate), activity level [1] | acaricidal efficacy (corrected mortality rate), activity level [2] | insecticidal efficacy (corrected mortality rate), activity level [3] | control efficacy (control rate), activity level [4]
1 | CCS(=O)(=O)n1c(-n2cnc(CCc3ccccc3)c2)nc2ccccc21 [Compound 1-9] | D or higher | D or higher |  | 
2 | CCc1nn(-c2nc3ccccc3n2S(=O)(=O)CC)cc1C(=O)OC(C)(C)C [Compound 2-49] |  | D or higher | D or higher | 
3 | CCS(=O)(=O)n1c(-n2ccc(OCC(F)(F)C(F)(F)F)n2)nc2ccccc21 [Compound 2-38] |  | D or higher | D or higher | 
4 | C=Cc1cn(-c2nc3ccccc3n2S(=O)(=O)CC)nc1C(F)(F)F [Compound 2-21] | D or higher | D or higher |  | 
5 | CCS(=O)(=O)n1c(-n2cc(SC(C)C)c(C(F)(F)F)n2)nc2ccccc21 [Compound 2-32] | D or higher | D or higher |  | 
6 | CCS(=O)(=O)n1c(-n2cnc(CCc3ccc(C(F)(F)F)cc3)c2)nc2ccccc21 [Compound 1-11] |  | D or higher | D or higher | 
7 | CCS(=O)(=O)n1c(-n2ccc(C(F)(F)F)n2)nc2ccccc21 [Compound 2-12] | D or higher | D or higher |  | 
8 | CCS(=O)(=O)n1c(-n2cc(CCc3ccccc3)c(C(F)(F)F)n2)nc2ccccc21 [Compound 2-23] |  | D or higher | D or higher | 
9 | CCS(=O)(=O)n1c(-n2cnc(C(F)(C(F)(F)F)C(F)(F)F)c2)nc2ccccc21 [Compound 1-22, 1-ethanesulfonyl-2-(4-heptafluoroisopropylimidazol-1-yl)benzimidazole] | D or higher | D or higher |  | 
10 | CCOC(=O)c1cn(-c2nc3ccccc3n2S(=O)(=O)CC)nc1C(F)(F)F [Compound 2-26] |  | D or higher |  | D or higher
11 | CCS(=O)(=O)n1c(-n2cc(C(=O)Oc3c(C)cccc3C)c(C(F)(F)F)n2)nc2ccccc21 [Compound 2-29] | D or higher | D or higher |  | 
12 | CCS(=O)(=O)n1c(-n2nc(C(F)(F)F)cc2C)nc2ccccc21 [Compound 2-17] | D or higher | D or higher |  | 
13 | CCS(=O)(=O)n1c(-n2cc(Br)c(OCC(F)(F)C(F)(F)F)n2)nc2ccccc21 [Compound 2-40] |  | D or higher |  | D or higher
14 | CCS(=O)(=O)n1c(-n2cc(C(=O)OC(C)(C)C)cn2)nc2ccccc21 [Compound 2-11] |  | D or higher |  | D or higher
15 | CCS(=O)(=O)n1c(-n2cc(CCc3ccccc3)cn2)nc2ccccc21 [Compound 2-3] |  | D or higher | D or higher | 
